Measurements reported in ChEMBL document CHEMBL1629598, “Statistical model to evaluate in vivo activities of antimalarial drugs in a Plasmodium cynomolgi-macaque model for Plasmodium vivax malaria” (2009).
Activity calls are given as the source filed them. No cut-off for these calls is given here.

Assays:
Plasmodium cynomolgi [1] = assay: Antimalarial activity against blood-stage of Plasmodium cynomolgi M infected in rhesus macaque assessed as reduction of peak parasitemia days at 40 mg/kg, po qd for 8 consecutive days; assay type: functional
Plasmodium cynomolgi [2] = assay: Antimalarial activity against blood-stage of Plasmodium cynomolgi M infected in rhesus macaque assessed as reduction of parasitemia at 40 mg/kg, po qd for 8 consecutive days (reference value: 4.7%); assay type: functional; parameters: scale not given: the % may be the effect or the level left
Plasmodium cynomolgi [3] = assay: Antimalarial activity against blood-stage of Plasmodium cynomolgi M infected in rhesus macaque assessed as complete cure at 40 mg/kg, po qd after 4 days; assay type: functional, organism-based; parameters: dose 40 mg/kg
Plasmodium cynomolgi [4] = assay: Antimalarial activity against blood-stage of Plasmodium cynomolgi M infected in rhesus macaque assessed as reduction of peak parasitemia days at 27 mg/kg, po qd for 4 consecutive days; assay type: functional
Plasmodium cynomolgi [5] = assay: Antimalarial activity against blood-stage of Plasmodium cynomolgi M infected in rhesus macaque assessed as reduction of parasitemia days at 9 mg/kg, po qd after 4 to 5 days; assay type: functional, organism-based; parameters: dose 9 mg/kg
Plasmodium cynomolgi [6] = assay: Antimalarial activity against blood-stage of Plasmodium cynomolgi M infected in rhesus macaque assessed as reduction of parasitemia days at 3 mg/kg, po qd after 4 to 5 days; assay type: functional, organism-based; parameters: dose 3 mg/kg
Plasmodium cynomolgi [7] = assay: Antimalarial activity against blood-stage of Plasmodium cynomolgi M infected in rhesus macaque assessed as reduction of peak parasitemia days at 3 mg/kg, po qd for 4 consecutive days; assay type: functional
Plasmodium cynomolgi [8] = assay: Antimalarial activity against blood-stage of Plasmodium cynomolgi M infected in rhesus macaque assessed as reduction of peak parasitemia days at 3 to 27 mg/kg, po qd for 4 consecutive days; assay type: functional; details: dose mg/kg 3-27
Plasmodium cynomolgi [9] = assay: Antimalarial activity against blood-stage of Plasmodium cynomolgi M infected in rhesus macaque assessed as reduction of parasitemia at 3 to 27 mg/kg, po qd for 8 consecutive days (reference value: 3%); assay type: functional; parameters: scale not given: the % may be the effect or the level left; details: dose mg/kg 3-27
Plasmodium cynomolgi [10] = assay: Antimalarial activity against blood-stage of Plasmodium cynomolgi M infected in rhesus macaque assessed as reduction of peak parasitemia days at 9 mg/kg, po qd for 4 consecutive days; assay type: functional
Plasmodium cynomolgi [11] = assay: Antimalarial activity against blood-stage of Plasmodium cynomolgi M infected in rhesus macaque assessed as reduction of parasitemia days at 27 mg/kg, po qd after 4 to 5 days; assay type: functional, organism-based; parameters: dose 27 mg/kg
Plasmodium cynomolgi [12] = assay: Antimalarial activity against blood-stage of Plasmodium cynomolgi M infected in rhesus macaque assessed as reduction of parasitemia administered intramuscularly twice daily for 8 consecutive days measured on day 28 (reference value: 6.1%); assay type: functional; parameters: scale not given: the % may be the effect or the level left
Plasmodium cynomolgi [13] = assay: Antimalarial activity against blood-stage of Plasmodium cynomolgi M infected in rhesus macaque assessed as reduction of peak parasitemia administered intramuscularly twice daily measured on day 3; assay type: functional, organism-based
Plasmodium cynomolgi [14] = assay: Antimalarial activity against blood-stage of Plasmodium cynomolgi M infected in rhesus macaque assessed as reduction of peak parasitemia days administered intramuscularly twice daily measured after 2nd dose (reference value: 3.5%); assay type: functional

COCC/C(SC(=O)c1ccc(CN2CCOCC2)cc1)=C(\C)N(C=O)CCCCCCCCCCCCN(C=O)/C(C)=C(/CCOC)SC(=O)c1ccc(CN2CCOCC2)cc1.O=C(O)C(O)C(O)C(=O)O
Time (Plasmodium cynomolgi [1]): 1 days
Activity (Plasmodium cynomolgi [2]): 1.5%
Activity (Plasmodium cynomolgi [3]): Active

C/C(=C1\CCOC(=O)S1)N(C=O)CCCCCCCCCCCCN(C=O)/C(C)=C1/CCOC(=O)S1
Time (Plasmodium cynomolgi [4]): 1.6 days
Activity (Plasmodium cynomolgi [5]): Active
Activity (Plasmodium cynomolgi [6]): Active
Time (Plasmodium cynomolgi [7]): 2 days
Time (Plasmodium cynomolgi [8]): 1.9 days
Activity (Plasmodium cynomolgi [9]): 0.6%
Time (Plasmodium cynomolgi [10]): 1.7 days
Activity (Plasmodium cynomolgi [11]): Active

C[N+]1(CCCCCCCCCCCCCCCC[N+]2(C)CCCC2)CCCC1.[Br-].[Br-]
Activity (Plasmodium cynomolgi [12]): 0.5%
Activity (Plasmodium cynomolgi [13]): Active
Time (Plasmodium cynomolgi [14]): 0.7 days
